# Laboratory results: patent US9829495B2, “Method for differentially diagnosing ACTH-dependent Cushing's syndrome” (Corcept Therapeutics, Inc., priority 2015, dated 2017)
# Tested on: ACTH from the pituitary gland
# Assay: ACTH stimulation after oral mifepristone in persons with normal HPA function
# Type: in vivo, human
# Details: oral dose of 300-1500 mg; persons having normal hypothalamic-pituitary-adrenal axis (HPA) function
# Experimental: GRA is administered at a dosage that is sufficient to increase ACTH in the pituitary gland by at least two fold in persons with normal HPA functions. In one embodiment, the GRA is mifepristone. In one embodiment, mifepristone is administered orally to the patient. […] In one embodiment, the GRA is administered at 11 pm the night before IPSS. Following the diagnosis of ACTH dependent Cushing's syndrome, they then undergo IPSS to identify the source of abnormal ACTH secretion, i.e., whether it is pituitary or ectopic. […] Another 0.018 microcatherter is inserted into the peripheral jugular vein. A 5,000 unit bolus of heparin is administered to the veins to prevent venous sinus thrombosis.
smiles,measurement,value
"CC#C[C@]1(O)CC[C@H]2[C@@H]3CCC4=CC(=O)CCC4=C3[C@@H](c3ccc(N(C)C)cc3)C[C@@]21C [mifepristone, 17-β-hydrox-11-β-(4-dimethyl-aminophenyl)17-α-(1-propynyl)estra-4,9-dien-3-one]",increase ACTH from the pituitary gland,at least two-fold
